Measurements reported in the supplement of paper PMC10307832.

Experiments:
Test in all cases: relative viability (nuclei count vs DMSO), 5 days (fraction); higher = more cells survive
[1] = system: 201T
In short: (§1)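 Lung cancer cell lines, seeded in 1536-well plates, were treated the following day by pin tool with a single drug or with five library-drug doses (not always all listed) in √10 steps on top of a fixed anchor-drug dose. Cells were fixed and nuclei stained in one step after 5 days, and nuclei were counted. Relative viability is the nuclei count for treated wells divided by that for vehicle wells, reported as medians of duplicate plates.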

[2] = system: NCI-H727
In short: as §1

[3] = system: NCI-H596
In short: as §1

[4] = system: ABC-1
In short: as §1

[5] = system: H3255
In short: as §1

[6] = system: NCI-H1915
In short: as §1

[7] = system: NCI-H441
In short: as §1

[8] = system: PC-3 [JPC-3]
In short: as §1

[9] = system: NCI-H1944
In short: as §1

[10] = system: CAL-12T
In short: as §1

[11] = system: NCI-H2023
In short: as §1

[12] = system: LC-2-ad
In short: as §1

[13] = system: BEN
In short: as §1

[14] = system: LCLC-97TM1
In short: as §1

[15] = system: NCI-H661
In short: as §1

[16] = system: NCI-H2087
In short: as §1

[17] = system: NCI-H650
In short: as §1

[18] = system: A-427
In short: as §1

[19] = system: NCI-H1651
In short: as §1

[20] = system: NCI-H460
In short: as §1

[21] = system: NCI-H1650
In short: as §1

[22] = system: NCI-H520
In short: as §1

C=C1C(=O)O[C@@H](CCCCCCCC)[C@@H]1C(=O)O [C-75] + COc1cc2c(Oc3ccc(NC(=O)C4(C(=O)Nc5ccc(F)cc5)CC4)cc3F)ccnc2cc1OCCCN1CCOCC1 [Foretinib] (partner 0.25 µM)
relative viability ([1]; first compound 0.08 µM): 1.08 | relative viability ([1]; first compound 0.253 µM): 1.24 | relative viability ([1]; first compound 0.8 µM): 1.08 | relative viability ([1]; first compound 2.53 µM): 0.64 | relative viability ([1]; first compound 8 µM): 1.03 | relative viability ([2]; first compound 0.08 µM): 0.796 | relative viability ([2]; first compound 0.253 µM): 1.33 | relative viability ([2]; first compound 0.8 µM): 0.695 | relative viability ([2]; first compound 8 µM): 0.917 | relative viability ([3]; first compound 0.08 µM): 0.878 | relative viability ([3]; first compound 0.253 µM): 1.01 | relative viability ([3]; first compound 0.8 µM): 0.871 | relative viability ([3]; first compound 2.53 µM): 1 | relative viability ([3]; first compound 8 µM): 0.869 | relative viability ([4]; first compound 0.08 µM): 1.16 | relative viability ([4]; first compound 0.253 µM): 1.24 | relative viability ([4]; first compound 0.8 µM): 0.913 | relative viability ([4]; first compound 2.53 µM): 1.18 | relative viability ([4]; first compound 8 µM): 0.81 | relative viability ([5]; first compound 0.08 µM): 0.837 | relative viability ([5]; first compound 0.253 µM): 0.927 | relative viability ([5]; first compound 0.8 µM): 0.73 | relative viability ([5]; first compound 2.53 µM): 0.736 | relative viability ([5]; first compound 8 µM): 0.983 | relative viability ([6]; first compound 0.08 µM): 1.04 | relative viability ([6]; first compound 0.253 µM): 1.1 | relative viability ([6]; first compound 0.8 µM): 1.03 | relative viability ([6]; first compound 2.53 µM): 1.07 | relative viability ([6]; first compound 8 µM): 1.05 | relative viability ([7]; first compound 0.08 µM): 1.01 | relative viability ([7]; first compound 0.253 µM): 0.958 | relative viability ([7]; first compound 0.8 µM): 1.03 | relative viability ([7]; first compound 2.53 µM): 0.789 | relative viability ([7]; first compound 8 µM): 1.15 | relative viability ([8]; first compound 0.08 µM): 1.05 | relative viability ([8]; first compound 0.253 µM): 1.02 | relative viability ([8]; first compound 0.8 µM): 1.06 | relative viability ([8]; first compound 2.53 µM): 1.06 | relative viability ([8]; first compound 8 µM): 1.2 | relative viability ([9]; first compound 0.08 µM): 0.899 | relative viability ([9]; first compound 0.253 µM): 0.756 | relative viability ([9]; first compound 0.8 µM): 0.829 | relative viability ([9]; first compound 8 µM): 0.834 | relative viability ([10]; first compound 0.08 µM): 1.17 | relative viability ([10]; first compound 0.253 µM): 1.34 | relative viability ([10]; first compound 0.8 µM): 1.07 | relative viability ([10]; first compound 2.53 µM): 1.05 | relative viability ([10]; first compound 8 µM): 1.25 | relative viability ([11]; first compound 0.08 µM): 0.798 | relative viability ([11]; first compound 0.253 µM): 1.05 | relative viability ([11]; first compound 0.8 µM): 0.714 | relative viability ([11]; first compound 2.53 µM): 0.943 | relative viability ([11]; first compound 8 µM): 1.07 | relative viability ([12]; first compound 0.08 µM): 0.937 | relative viability ([12]; first compound 0.253 µM): 0.8 | relative viability ([12]; first compound 0.8 µM): 0.859 | relative viability ([12]; first compound 2.53 µM): 0.724 | relative viability ([12]; first compound 8 µM): 0.889 | relative viability ([13]; first compound 0.08 µM): 0.712 | relative viability ([13]; first compound 0.253 µM): 0.671 | relative viability ([13]; first compound 0.8 µM): 0.547 | relative viability ([13]; first compound 8 µM): 0.478 | relative viability ([14]; first compound 0.08 µM): 0.934 | relative viability ([14]; first compound 0.253 µM): 1.01 | relative viability ([14]; first compound 0.8 µM): 0.951 | relative viability ([14]; first compound 2.53 µM): 0.847 | relative viability ([14]; first compound 8 µM): 0.926 | relative viability ([15]; first compound 0.08 µM): 1.06 | relative viability ([15]; first compound 0.253 µM): 1.01 | relative viability ([15]; first compound 0.8 µM): 0.998 | relative viability ([15]; first compound 2.53 µM): 0.901 | relative viability ([15]; first compound 8 µM): 0.896 | relative viability ([16]; first compound 0.08 µM): 1.15 | relative viability ([16]; first compound 0.253 µM): 1.07 | relative viability ([16]; first compound 0.8 µM): 0.943 | relative viability ([16]; first compound 2.53 µM): 0.725 | relative viability ([16]; first compound 8 µM): 0.891 | relative viability ([17]; first compound 0.08 µM): 1 | relative viability ([17]; first compound 0.253 µM): 0.818 | relative viability ([17]; first compound 0.8 µM): 1.04 | relative viability ([17]; first compound 2.53 µM): 0.995 | relative viability ([17]; first compound 8 µM): 0.993 | relative viability ([18]; first compound 0.08 µM): 0.898 | relative viability ([18]; first compound 0.253 µM): 1.18 | relative viability ([18]; first compound 0.8 µM): 0.969 | relative viability ([18]; first compound 2.53 µM): 1.03 | relative viability ([18]; first compound 8 µM): 0.992 | relative viability ([19]; first compound 0.08 µM): 0.83 | relative viability ([19]; first compound 0.253 µM): 0.944 | relative viability ([19]; first compound 0.8 µM): 0.725 | relative viability ([19]; first compound 2.53 µM): 0.668 | relative viability ([19]; first compound 8 µM): 0.958 | relative viability ([20]; first compound 0.08 µM): 1.01 | relative viability ([20]; first compound 0.253 µM): 1.09 | relative viability ([20]; first compound 0.8 µM): 0.891 | relative viability ([20]; first compound 8 µM): 0.977 | relative viability ([21]; first compound 0.08 µM): 1.2 | relative viability ([21]; first compound 0.253 µM): 1.41 | relative viability ([21]; first compound 2.53 µM): 1.11 | relative viability ([21]; first compound 8 µM): 1.04 | relative viability ([22]; first compound 0.08 µM): 0.728 | relative viability ([22]; first compound 0.253 µM): 0.95 | relative viability ([22]; first compound 0.8 µM): 0.831 | relative viability ([22]; first compound 2.53 µM): 0.909 | relative viability ([22]; first compound 8 µM): 0.794
